{
  "source": "patent US7122576B2",
  "about": "“Carbamate compounds for use in preventing or treating bipolar disorder” (priority 2001, dated 2006)",
  "test_system": "hippocampal kindled rats",
  "test": "Hippocampal kindled rat model",
  "type": "in vivo, Sprague-Dawley rats",
  "design": "After-Discharge Threshold: unit not given here",
  "conditions": "for Mean Seizure Score: seizure score scale 1-5",
  "protocol": "Hippocampal Kindled Rat Model\nIn the hippocampal kindling model (Lothman E W, et al., Epilepsy Res., 1988, 2(6) 367–79), adult male Sprague-Dawley rats are surgically implanted with bipolar electrodes. Seizure score is assessed as follows: (1) mouth and facial movements; (2) above symptoms plus head nodding; (3) above symptoms plus forelimb clonus; (4) above symptoms plus rearing; and (5) above symptoms plus falling.",
  "key": {"[1]": {"conditions": "50 mg/kg intraperitoneally, n=8"}, "[2]": {"conditions": "100 mg/kg intraperitoneally, n=8"}, "[3]": {"conditions": "200 mg/kg intraperitoneally, n=8"}, "[4]": {"conditions": "300 mg/kg intraperitoneally, 0.25 hr after dose, n=2"}, "[5]": {"conditions": "300 mg/kg intraperitoneally, 1 hr after dose, n=2"}, "[6]": {"conditions": "300 mg/kg intraperitoneally, 2 hr after dose, n=2"}, "[7]": {"conditions": "300 mg/kg intraperitoneally, 4 hr after dose, n=2"}},
  "data": [
    {"smiles": "NC(=O)OC[C@H](OC(N)=O)c1ccccc1Cl", "note": "[enantiomer of Formula (Ib)]", "values": [
      {"measurement": "toxicity of dose", "setting": "50 mg/kg intraperitoneally", "value": "nontoxic"},
      {"measurement": "% Protected", "setting": "[1]", "value": 12.50, "unit": "%"},
      {"measurement": "After-Discharge Duration", "setting": "[1]", "value": 75.88, "unit": "s"},
      {"measurement": "Mean Seizure Score", "setting": "[1]", "value": 3.75},
      {"measurement": "effect on after-discharge threshold and duration", "setting": "50 mg/kg intraperitoneally, n=8 per group, over approximately a 3 hour time period", "value": "time-dependent reduction in after-discharge threshold and duration"},
      {"measurement": "% Protected", "setting": "[2]", "value": 33.33, "unit": "%"},
      {"measurement": "After-Discharge Duration", "setting": "[2]", "value": 53.17, "unit": "s"},
      {"measurement": "Mean Seizure Score", "setting": "[2]", "value": 3},
      {"measurement": "% Protected", "setting": "[3]", "value": 87.50, "unit": "%"},
      {"measurement": "After-Discharge Duration", "setting": "[3]", "value": 42, "unit": "s"},
      {"measurement": "Mean Seizure Score", "setting": "[3]", "value": 1.63},
      {"measurement": "toxicity of dose", "setting": "300 mg/kg intraperitoneally", "value": "nontoxic"},
      {"measurement": "After-Discharge Duration", "setting": "[4]", "value": 44, "unit": "s"},
      {"measurement": "After-Discharge Threshold", "setting": "[4]", "value": 105},
      {"measurement": "Mean Seizure Score", "setting": "[4]", "value": 2.5},
      {"measurement": "After-Discharge Duration", "setting": "[5]", "value": 50, "unit": "s"},
      {"measurement": "After-Discharge Threshold", "setting": "[5]", "value": ">200"},
      {"measurement": "Mean Seizure Score", "setting": "[5]", "value": 1.5},
      {"measurement": "After-Discharge Duration", "setting": "[6]", "value": 53, "unit": "s"},
      {"measurement": "After-Discharge Threshold", "setting": "[6]", "value": ">200"},
      {"measurement": "Mean Seizure Score", "setting": "[6]", "value": 1.5},
      {"measurement": "After-Discharge Duration", "setting": "[7]", "value": 111, "unit": "s"},
      {"measurement": "After-Discharge Threshold", "setting": "[7]", "value": 200},
      {"measurement": "Mean Seizure Score", "setting": "[7]", "value": 2.5},
      {"measurement": "effect against the expression of Stage 5 seizures", "setting": "300 mg/kg intraperitoneally, n=2, over a 4 hour time period", "value": "effective"},
      {"measurement": "ED50", "setting": "Rattus norvegicus, ip, dose range 50 to 200 mg/kg, intraperitoneally, 95% confidence interval 67.9 to 189.8 mg/kg, read-out: calculated ED50 value for reduction of the seizure score from 5 to 3 or less", "value": 112, "unit": "mg/kg"},
      {"measurement": "anti-kindling effects", "setting": "hippocampal-kindled rat model", "value": "potent anti-kindling effects"}
    ]}
  ]
}
